Reference: patent US20090232867A1, “Modified conductive surfaces having active substances attached thereto” (Elutex Ltd., priority 2004, published 2009)

Key:
[1] = Paclitaxel release from coated stent or plate into phosphate buffer pH 7.4 with 0.3% SDS, HPLC; format: physicochemical; settings: stents/plates coated with polypyrrole derivatives
Protocol: The release characteristic of the stent or plate was determined by placing drug-loaded device into buffer phosphate solution, pH 7.4, which contained 0.3% SDS, to increase the solubility of paclitaxel, and the daily release was determined by HPLC.

[2] = Paclitaxel release from pyrrole-functionalized PLA nanoparticles in 0.1N phosphate buffer; format: physicochemical; settings: immersed in 0.1N phosphate buffer solution
Protocol: In a representative example, nanoparticles were prepared by dispersing a chloroform solution of a pyrrole polymer prepared as described hereinabove (0.1 gram), polylactic acid (0.4 grams, Mn=3,000) and paclitaxel (0.15 gram) in de-ionized water at room temperature with constant stirring.

absorbed drug released into the buffer medium ([1]; after 3 days): about 50%
duration of slow release of the remaining drug [1]: over 3 weeks
SMILES: CC(=O)O[C@H]1C(=O)[C@@]2(C)[C@H]([C@H](OC(=O)c3ccccc3)[C@]3(O)C[C@H](OC(=O)[C@H](O)[C@@H](NC(=O)c4ccccc4)c4ccccc4)C(C)=C1C3(C)C)[C@]1(OC(C)=O)CO[C@@H]1C[C@@H]2O [paclitaxel]
release of paclitaxel from nanoparticles [2]: released constantly from these particles during two weeks
